# Reference: ChEMBL document CHEMBL1255512, “Pyrazolo[1,5-a]pyrimidine acetamides: 4-Phenyl alkyl ether derivatives as potent ligands for the 18 kDa translocator protein (TSPO)” (Bioorg Med Chem Lett, 2010)
# Experiments:
# [1] = target: Histamine H1 receptor (Homo sapiens) (UniProt P35367); experiment: Inhibition of H1 receptor at 10 uM
# [2] = target: T1, Delta-type opioid receptor (Homo sapiens, UniProt P41143); experiment: Inhibition of delta opioid receptor at 10 uM
# [3] = target: 5-hydroxytryptamine receptor 3A (Homo sapiens) (UniProt P46098); experiment: Inhibition of 5-HT3 receptor at 10 uM
# Chain of 5-hydroxytryptamine receptor 3A (Homo sapiens) (P46098 whole entry): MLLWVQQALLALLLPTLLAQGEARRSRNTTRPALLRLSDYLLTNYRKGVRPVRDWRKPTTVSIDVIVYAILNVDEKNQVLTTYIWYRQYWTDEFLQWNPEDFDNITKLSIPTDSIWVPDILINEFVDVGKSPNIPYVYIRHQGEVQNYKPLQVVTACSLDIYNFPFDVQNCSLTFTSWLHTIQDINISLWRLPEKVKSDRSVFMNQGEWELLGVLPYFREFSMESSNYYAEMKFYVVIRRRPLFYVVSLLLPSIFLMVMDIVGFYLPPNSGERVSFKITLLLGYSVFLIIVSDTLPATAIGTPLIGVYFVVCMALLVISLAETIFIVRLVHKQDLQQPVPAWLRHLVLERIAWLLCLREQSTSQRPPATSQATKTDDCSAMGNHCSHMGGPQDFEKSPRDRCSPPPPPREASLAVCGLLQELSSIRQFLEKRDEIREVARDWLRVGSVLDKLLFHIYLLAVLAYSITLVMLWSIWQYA
# [4] = target: 5-hydroxytryptamine receptor 6 (Homo sapiens) (UniProt P50406); experiment: Inhibition of 5-HT6 receptor at 10 uM
# Chain of 5-hydroxytryptamine receptor 6 (Homo sapiens) (P50406 whole entry): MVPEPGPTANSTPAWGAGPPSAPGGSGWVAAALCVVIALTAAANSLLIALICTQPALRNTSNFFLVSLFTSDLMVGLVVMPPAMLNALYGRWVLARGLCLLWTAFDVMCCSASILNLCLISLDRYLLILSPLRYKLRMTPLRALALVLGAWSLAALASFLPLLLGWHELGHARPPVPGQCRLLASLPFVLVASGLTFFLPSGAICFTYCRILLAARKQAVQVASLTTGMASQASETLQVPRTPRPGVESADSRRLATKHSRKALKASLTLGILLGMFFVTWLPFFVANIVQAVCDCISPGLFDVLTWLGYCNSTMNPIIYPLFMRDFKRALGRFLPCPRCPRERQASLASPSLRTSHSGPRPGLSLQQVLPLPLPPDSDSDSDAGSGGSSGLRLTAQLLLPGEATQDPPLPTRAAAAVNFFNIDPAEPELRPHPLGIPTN
# [5] = target: T2, Muscarinic acetylcholine receptor M4 (Homo sapiens) (UniProt P08173); experiment: Inhibition of M4 muscarinic receptor at 10 uM
# T2 sequence (whole entry): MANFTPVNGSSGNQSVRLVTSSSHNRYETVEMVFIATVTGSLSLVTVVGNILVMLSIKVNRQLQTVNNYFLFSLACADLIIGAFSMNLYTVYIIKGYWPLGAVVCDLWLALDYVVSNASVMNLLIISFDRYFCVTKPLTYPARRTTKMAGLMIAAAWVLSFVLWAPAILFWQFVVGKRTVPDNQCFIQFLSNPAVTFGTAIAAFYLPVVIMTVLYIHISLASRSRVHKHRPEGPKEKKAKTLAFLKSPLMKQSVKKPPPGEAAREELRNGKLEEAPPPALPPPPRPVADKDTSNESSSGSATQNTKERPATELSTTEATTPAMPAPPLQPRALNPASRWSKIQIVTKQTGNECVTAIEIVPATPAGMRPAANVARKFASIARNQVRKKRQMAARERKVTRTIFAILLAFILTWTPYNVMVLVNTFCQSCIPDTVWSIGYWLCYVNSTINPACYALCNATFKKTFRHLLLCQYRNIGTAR
# [6] = target: Beta-3 adrenergic receptor (Homo sapiens) (UniProt P13945); experiment: Inhibition of beta3 adrenergic receptor at 10 uM
# Chain of Beta-3 adrenergic receptor (Homo sapiens) (P13945 whole entry, looked up): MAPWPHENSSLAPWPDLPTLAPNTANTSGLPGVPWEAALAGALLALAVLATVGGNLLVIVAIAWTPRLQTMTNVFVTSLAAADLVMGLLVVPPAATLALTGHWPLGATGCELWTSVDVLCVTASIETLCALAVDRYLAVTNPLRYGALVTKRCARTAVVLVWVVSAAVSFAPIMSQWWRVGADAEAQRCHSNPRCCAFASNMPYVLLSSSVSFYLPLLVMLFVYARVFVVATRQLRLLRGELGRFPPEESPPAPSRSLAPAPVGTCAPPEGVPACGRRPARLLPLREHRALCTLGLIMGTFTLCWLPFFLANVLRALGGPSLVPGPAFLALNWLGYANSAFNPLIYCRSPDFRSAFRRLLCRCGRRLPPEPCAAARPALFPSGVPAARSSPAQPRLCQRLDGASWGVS
# [7] = target: T3, Muscarinic acetylcholine receptor M1 (Homo sapiens) (UniProt P11229); experiment: Inhibition of M1 muscarinic receptor at 10 uM
# T3 sequence (whole entry): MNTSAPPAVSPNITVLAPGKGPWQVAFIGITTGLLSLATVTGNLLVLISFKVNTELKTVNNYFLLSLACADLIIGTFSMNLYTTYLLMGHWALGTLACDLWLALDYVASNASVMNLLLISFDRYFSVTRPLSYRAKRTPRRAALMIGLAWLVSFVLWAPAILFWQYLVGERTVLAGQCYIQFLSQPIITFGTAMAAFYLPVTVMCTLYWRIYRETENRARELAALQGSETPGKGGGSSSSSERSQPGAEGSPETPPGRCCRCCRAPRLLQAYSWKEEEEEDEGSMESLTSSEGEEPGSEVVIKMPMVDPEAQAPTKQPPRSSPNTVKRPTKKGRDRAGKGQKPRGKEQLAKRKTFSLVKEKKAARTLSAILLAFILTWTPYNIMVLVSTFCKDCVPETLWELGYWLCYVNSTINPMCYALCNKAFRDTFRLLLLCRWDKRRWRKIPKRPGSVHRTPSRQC
# [8] = Displacement of [3H]Ro151788 from CBR in rat […]; assay type: tissue-based
# [9] = target: Muscarinic acetylcholine receptor M3 (Homo sapiens) (UniProt P20309); experiment: Inhibition of M3 muscarinic receptor at 10 uM
# Chain of Muscarinic acetylcholine receptor M3 (Homo sapiens) (P20309 whole entry, looked up): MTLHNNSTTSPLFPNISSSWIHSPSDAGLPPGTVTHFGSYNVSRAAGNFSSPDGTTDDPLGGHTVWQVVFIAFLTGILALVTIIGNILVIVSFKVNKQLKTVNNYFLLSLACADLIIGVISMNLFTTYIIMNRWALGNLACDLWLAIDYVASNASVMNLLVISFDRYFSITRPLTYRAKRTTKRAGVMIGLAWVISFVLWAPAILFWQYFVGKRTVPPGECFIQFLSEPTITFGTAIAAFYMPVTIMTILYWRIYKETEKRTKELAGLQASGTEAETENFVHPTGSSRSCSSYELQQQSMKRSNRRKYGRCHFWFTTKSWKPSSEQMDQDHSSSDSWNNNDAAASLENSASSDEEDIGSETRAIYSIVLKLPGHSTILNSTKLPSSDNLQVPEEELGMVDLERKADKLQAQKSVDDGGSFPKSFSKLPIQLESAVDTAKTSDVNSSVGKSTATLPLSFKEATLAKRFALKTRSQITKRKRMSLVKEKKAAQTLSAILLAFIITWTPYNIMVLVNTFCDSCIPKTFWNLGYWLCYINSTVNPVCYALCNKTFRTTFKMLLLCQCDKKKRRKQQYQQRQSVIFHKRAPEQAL
# [10] = target: T4, 5-hydroxytryptamine receptor 2C (Homo sapiens) (UniProt P28335); experiment: Inhibition of 5-HT2C receptor at 10 uM
# T4 sequence (whole entry): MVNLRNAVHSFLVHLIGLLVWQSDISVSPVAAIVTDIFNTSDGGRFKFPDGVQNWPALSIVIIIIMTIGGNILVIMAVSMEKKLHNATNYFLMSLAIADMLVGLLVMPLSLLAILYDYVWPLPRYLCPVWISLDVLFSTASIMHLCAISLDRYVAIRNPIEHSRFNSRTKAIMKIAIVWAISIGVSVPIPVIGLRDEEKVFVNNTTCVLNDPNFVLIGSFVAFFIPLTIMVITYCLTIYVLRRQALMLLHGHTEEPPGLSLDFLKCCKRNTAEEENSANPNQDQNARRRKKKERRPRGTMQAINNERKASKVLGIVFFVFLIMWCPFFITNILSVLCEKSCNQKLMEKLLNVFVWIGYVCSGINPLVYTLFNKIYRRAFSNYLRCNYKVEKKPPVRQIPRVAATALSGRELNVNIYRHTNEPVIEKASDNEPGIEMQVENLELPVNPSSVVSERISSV
# [11] = target: T5, D(4) dopamine receptor (Homo sapiens) (UniProt P21917); experiment: Inhibition of D4 dopamine receptor at 10 uM
# T5 sequence (whole entry): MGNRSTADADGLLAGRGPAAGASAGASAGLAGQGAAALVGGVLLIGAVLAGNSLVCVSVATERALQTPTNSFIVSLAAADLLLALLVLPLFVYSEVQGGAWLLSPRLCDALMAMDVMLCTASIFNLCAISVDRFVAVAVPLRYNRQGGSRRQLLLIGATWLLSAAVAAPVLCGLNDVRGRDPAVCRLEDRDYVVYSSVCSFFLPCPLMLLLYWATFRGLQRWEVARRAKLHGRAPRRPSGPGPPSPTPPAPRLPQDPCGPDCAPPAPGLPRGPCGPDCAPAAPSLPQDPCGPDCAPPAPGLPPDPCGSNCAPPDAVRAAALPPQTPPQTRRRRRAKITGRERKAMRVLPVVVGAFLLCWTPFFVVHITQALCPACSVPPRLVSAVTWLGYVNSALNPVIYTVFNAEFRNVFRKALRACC
# [12] = target: Sodium-dependent serotonin transporter (Homo sapiens) (UniProt P31645); experiment: Inhibition of 5HT transporter at 10 uM
# Chain of Sodium-dependent serotonin transporter (Homo sapiens) (P31645 whole entry, looked up): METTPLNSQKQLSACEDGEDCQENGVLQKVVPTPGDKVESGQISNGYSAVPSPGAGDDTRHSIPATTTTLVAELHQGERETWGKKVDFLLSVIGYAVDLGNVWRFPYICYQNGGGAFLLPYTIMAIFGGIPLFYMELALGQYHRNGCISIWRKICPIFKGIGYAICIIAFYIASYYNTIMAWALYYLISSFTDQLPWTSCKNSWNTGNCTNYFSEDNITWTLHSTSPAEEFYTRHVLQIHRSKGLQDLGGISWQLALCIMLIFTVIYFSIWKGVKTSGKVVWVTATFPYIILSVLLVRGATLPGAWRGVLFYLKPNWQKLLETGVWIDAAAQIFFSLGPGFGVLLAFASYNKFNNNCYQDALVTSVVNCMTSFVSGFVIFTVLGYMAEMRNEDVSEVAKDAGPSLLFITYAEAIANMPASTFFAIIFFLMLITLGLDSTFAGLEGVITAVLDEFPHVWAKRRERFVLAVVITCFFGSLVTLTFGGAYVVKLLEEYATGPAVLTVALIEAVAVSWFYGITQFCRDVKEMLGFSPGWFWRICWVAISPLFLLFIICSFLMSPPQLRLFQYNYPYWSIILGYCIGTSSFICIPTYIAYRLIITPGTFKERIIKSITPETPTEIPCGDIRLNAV
# [13] = target: T6, Alpha-1B adrenergic receptor (Homo sapiens) (UniProt P35368); experiment: Inhibition of Alpha-1B adrenergic receptor at 10 uM
# T6 sequence (whole entry): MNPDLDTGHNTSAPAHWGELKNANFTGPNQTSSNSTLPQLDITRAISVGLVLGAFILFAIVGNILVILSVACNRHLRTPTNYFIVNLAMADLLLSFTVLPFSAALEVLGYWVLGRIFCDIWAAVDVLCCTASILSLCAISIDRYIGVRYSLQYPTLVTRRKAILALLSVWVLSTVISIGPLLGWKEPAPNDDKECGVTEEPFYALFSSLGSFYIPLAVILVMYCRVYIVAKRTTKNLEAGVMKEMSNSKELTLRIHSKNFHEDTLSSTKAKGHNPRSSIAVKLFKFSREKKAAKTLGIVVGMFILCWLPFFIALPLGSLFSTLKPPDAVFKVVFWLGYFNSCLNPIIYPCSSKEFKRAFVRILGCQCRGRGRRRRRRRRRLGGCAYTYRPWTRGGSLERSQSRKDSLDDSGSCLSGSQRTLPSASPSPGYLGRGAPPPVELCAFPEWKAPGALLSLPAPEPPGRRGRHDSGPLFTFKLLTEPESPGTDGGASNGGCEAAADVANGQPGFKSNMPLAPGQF
# [14] = target: Sodium-dependent dopamine transporter (Homo sapiens) (UniProt Q01959); experiment: Inhibition of dopamine transporter at 10 uM
# Chain of Sodium-dependent dopamine transporter (Homo sapiens) (Q01959 whole entry): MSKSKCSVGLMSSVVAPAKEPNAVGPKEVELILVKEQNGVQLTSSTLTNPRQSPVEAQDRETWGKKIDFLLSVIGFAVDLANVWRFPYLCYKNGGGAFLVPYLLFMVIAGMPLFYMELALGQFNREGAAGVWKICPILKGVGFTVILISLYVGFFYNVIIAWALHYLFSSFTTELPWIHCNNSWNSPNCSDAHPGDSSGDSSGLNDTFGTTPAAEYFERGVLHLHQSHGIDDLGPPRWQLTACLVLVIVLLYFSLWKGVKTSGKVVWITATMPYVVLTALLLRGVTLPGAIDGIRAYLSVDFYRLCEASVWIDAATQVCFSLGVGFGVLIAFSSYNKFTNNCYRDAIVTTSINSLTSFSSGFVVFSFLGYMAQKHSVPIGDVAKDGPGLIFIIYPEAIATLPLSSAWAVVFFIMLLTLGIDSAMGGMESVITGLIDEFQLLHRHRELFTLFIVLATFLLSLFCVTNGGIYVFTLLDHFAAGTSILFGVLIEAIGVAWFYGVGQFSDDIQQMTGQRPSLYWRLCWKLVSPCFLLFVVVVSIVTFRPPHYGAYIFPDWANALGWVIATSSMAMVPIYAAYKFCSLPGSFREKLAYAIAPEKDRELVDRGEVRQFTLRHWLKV
# [15] = target: Kappa-type opioid receptor (Homo sapiens, UniProt P41145); experiment: Inhibition of kappa opioid receptor
# Chain of Kappa-type opioid receptor (P41145 whole entry): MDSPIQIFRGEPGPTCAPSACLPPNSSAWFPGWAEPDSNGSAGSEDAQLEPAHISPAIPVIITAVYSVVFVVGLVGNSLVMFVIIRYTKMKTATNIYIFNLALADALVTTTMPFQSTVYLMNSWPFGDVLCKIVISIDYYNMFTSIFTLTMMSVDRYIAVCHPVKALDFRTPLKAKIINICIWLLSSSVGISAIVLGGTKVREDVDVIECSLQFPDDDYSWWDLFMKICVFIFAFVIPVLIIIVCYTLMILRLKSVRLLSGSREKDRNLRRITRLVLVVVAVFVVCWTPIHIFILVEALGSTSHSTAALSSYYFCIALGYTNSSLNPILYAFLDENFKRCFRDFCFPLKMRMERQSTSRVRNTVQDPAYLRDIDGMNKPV
# [16] = target: T1, Delta-type opioid receptor; experiment: Inhibition of delta opioid receptor
# Chain of Histamine H1 receptor (Homo sapiens) (P35367 whole entry): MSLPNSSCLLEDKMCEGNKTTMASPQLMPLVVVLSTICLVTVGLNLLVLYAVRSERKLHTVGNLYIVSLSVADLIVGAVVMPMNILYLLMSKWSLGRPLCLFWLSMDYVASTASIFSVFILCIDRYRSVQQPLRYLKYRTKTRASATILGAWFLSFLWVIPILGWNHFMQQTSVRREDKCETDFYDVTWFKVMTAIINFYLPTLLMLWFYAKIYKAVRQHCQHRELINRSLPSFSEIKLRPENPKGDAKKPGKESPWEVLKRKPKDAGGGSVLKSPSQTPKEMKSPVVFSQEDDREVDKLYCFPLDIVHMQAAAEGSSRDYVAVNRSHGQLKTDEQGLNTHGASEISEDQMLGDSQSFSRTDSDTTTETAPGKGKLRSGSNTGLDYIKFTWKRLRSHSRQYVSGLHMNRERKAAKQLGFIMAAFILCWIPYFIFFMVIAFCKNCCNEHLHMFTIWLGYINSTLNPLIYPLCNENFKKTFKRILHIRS
# T1 sequence (P41143 whole entry): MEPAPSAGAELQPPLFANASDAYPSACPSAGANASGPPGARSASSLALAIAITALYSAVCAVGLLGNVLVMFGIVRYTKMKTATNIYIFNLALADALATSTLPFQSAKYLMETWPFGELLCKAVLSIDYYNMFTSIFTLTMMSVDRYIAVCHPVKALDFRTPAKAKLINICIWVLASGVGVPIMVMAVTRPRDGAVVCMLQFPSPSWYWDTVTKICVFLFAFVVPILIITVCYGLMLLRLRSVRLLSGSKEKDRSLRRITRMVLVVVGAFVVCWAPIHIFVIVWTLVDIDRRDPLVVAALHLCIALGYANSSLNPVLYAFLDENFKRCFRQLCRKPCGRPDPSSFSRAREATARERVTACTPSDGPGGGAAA
inhibition [1],inhibition [2],inhibition [3],inhibition [4],inhibition [5],inhibition [6],inhibition [7],Ki [8],inhibition [9],inhibition [10],inhibition [11],inhibition [12],inhibition [13],inhibition [14],Ki [15],Ki [16],SMILES
< 50%,< 50%,< 50%,< 50%,< 50%,< 50%,< 50%,> 10 µM,< 50%,< 50%,< 50%,< 50%,< 50%,< 50%,–,–,C#CCOc1ccc(-c2nn3c(C)cc(C)nc3c2CC(=O)N(CC)CC)cc1
< 50%,< 50%,< 50%,< 50%,< 50%,< 50%,< 50%,> 10 µM,< 50%,< 50%,< 50%,< 50%,< 50%,< 50%,–,–,CCOc1ccc(-c2nn3c(C)cc(C)nc3c2CC(=O)N(CC)CC)cc1
< 50%,–,–,< 50%,< 50%,< 50%,< 50%,> 10 µM,< 50%,< 50%,< 50%,< 50%,–,< 50%,> 10 µM,> 10 µM,CCCOc1ccc(-c2nn3c(C)cc(C)nc3c2CC(=O)N(CC)CC)cc1
< 50%,–,–,< 50%,< 50%,< 50%,< 50%,> 10 µM,< 50%,< 50%,< 50%,< 50%,< 50%,< 50%,> 10 µM,> 10 µM,CCCCOc1ccc(-c2nn3c(C)cc(C)nc3c2CC(=O)N(CC)CC)cc1
